Laboratory results taken from ChEMBL document CHEMBL4190197, “Nepetaefolins A-J, Cytotoxic Chinane and Abietane Diterpenoids from Caryopteris nepetaefolia” (J Nat Prod, 2017).

Tests used:
Type in all cases: functional
Conditions in all cases: Homo sapiens, 144 h
[1] = Antiproliferative activity against non-small cell lung cancer patient-derived LUPF045 cells after 6 days by ATP-TCA method
[2] = Antiproliferative activity against ovarian cancer patient-derived OVPF038 cells after 6 days by ATP-TCA method
[3] = Antiproliferative activity against non-small cell lung cancer patient-derived LUPF003 cells after 6 days by ATP-TCA method
[4] = Antiproliferative activity against ovarian cancer patient-derived OVPF008 cells after 6 days by ATP-TCA method

| Compound | IC50 [1] | IC50 [2] | IC50 [3] | IC50 [4] |
| --- | --- | --- | --- | --- |
| CC(C)[C@]12C=C3CC[C@@H]4[C@](C)(CCC[C@]4(C)C(=O)O)[C@]3(CC1)OO2 | > 50 µM | – | – | – |
| CC(=O)OC[C@@]1(C)[C@@H](O)CC[C@]2(C)c3ccc(C(C)C)cc3CC[C@@H]12 | 6.3 µM | 12.7 µM | 31.5 µM | 7.9 µM |
| C=C(C)c1ccc2c(c1)CC[C@H]1C3=C(CC[C@]21C)C(=O)OC3 | 9 µM | 19.3 µM | 11.7 µM | 16.8 µM |
| CC(C)[C@]12C=C3CC[C@H]4[C@@](C)(CO)[C@@H](O)CC[C@]4(C)[C@]3(CC1)OO2 | > 50 µM | – | – | – |
| CC(C)(O)c1cc2c(cc1O)[C@@]1(C)CCC3=C(COC3=O)[C@@H]1CC2 | – | > 50 µM | 44.7 µM | > 50 µM |
| CC(C)[C@@]12C=C3CC[C@H]4[C@@](C)(CO)[C@@H](O)CC[C@]4(C)[C@]3(CC1)OO2 | 49.7 µM | > 50 µM | – | > 50 µM |
| C=C(C)c1cc2c(cc1O)[C@@]1(C)CCC3=C(COC3=O)[C@@H]1CC2 | 49.6 µM | > 50 µM | 43.8 µM | – |
| CC(=O)O[C@H]1C(=O)[C@@]2(C)[C@H]([C@H](OC(=O)c3ccccc3)[C@]3(O)C[C@H](OC(=O)[C@H](O)[C@@H](NC(=O)c4ccccc4)c4ccccc4)C(C)=C1C3(C)C)[C@]1(OC(C)=O)CO[C@@H]1C[C@@H]2O [PACLITAXEL] | 11.2 µM | 1.4 µM | 11 µM | 1.1 µM |
